In patent publication US20130102593A1, “PYRROLIDINE COMPOUNDS WHICH INHIBIT BETA-SECRETASE ACTIVITY AND METHODS OF USE THEREOF” (priority 2008, published 2013):
Read-outs that look alike come from different tables or passages of the source.

Tested on: Aβ production
Test: Cellular Aβ IC50 determination (memapsin 2 activity in a cellular assay of Aβ production)
Format: cell-based, Chinese hamster
Settings: Cricetulus griseus, read-out: M2 IC50
Procedure: The potency of compounds against memapsin 2 activity was determined in a cellular assay of Aβ production. […] Chinese hamster ovary cells that over-express human APP695 with the London and Swedish mutations were seeded in multi-well plates at 10% confluency. Compounds are dissolved in DMSO to concentrations near 1 mM, and diluted into culture media to a final concentration near 4 μM (final 0.4% DMSO). Compounds were diluted serially and applied to cells in multi-well plates 48 h after seeding. Incubation was continued in 5% CO2 at 37° C. for 24 h. Aliquots were removed and assayed for […] content using a sandwich ELISA (BioSource International). Amount of Aβ40 over the range of concentration of compounds, relative to control incubations, were fit to a 4-parameter IC50 model.

[1] = Chinese hamster ovary cells over-expressing human APP695 with London and Swedish mutations, 24 h, Aβ40 sandwich ELISA

Row | Compound | IC50 [1] | IC50 (CHO cells over-expressing human APP695, Aβ40 ELISA)
1 | Cc1csc(CN(C)C(=O)c2cc(C(=O)N[C@@H](Cc3ccccc3)[C@H](O)[C@H]3CCCN3)cc(-c3cnco3)c2)n1 [1-12, N1-((1R,2S)-1-hydroxy-3-phenyl-1-((R)-pyrrolidin-2-yl)propan-2-yl)-N3-methyl-N3-((4-methylthiazol-2-yl)methyl)-5-(oxazol-5-yl)isophthalamide] | > 1 µM | 
2 | Cc1csc(CN(C)C(=O)c2cc(C(=O)N[C@@H](Cc3ccccc3)[C@H](O)[C@H]3CCCN3)cc(-n3cccc3)c2)n1 [1-13, N1-((1R,2S)-1-hydroxy-3-phenyl-1-((R)-pyrrolidin-2-yl)propan-2-yl)-N3-methyl-N3-((4-methylthiazol-2-yl)methyl)-5-(1H-pyrrol-1-yl)isophthalamide] | 0.5 to 1 µM | 
3 | Cc1csc([C@H]2CCCN2C(=O)c2cc(C(=O)N[C@@H](Cc3ccccc3)[C@H](O)[C@H]3CCCN3)cc(C(F)F)c2)n1 [1-14, 3-(difluoromethyl)-N-((1R,2S)-1-hydroxy-3-phenyl-1-((R)-pyrrolidin-2-yl)propan-2-yl)-5-((R)-2-(4-methylthiazol-2-yl)pyrrolidine-1-carbonyl)benzamide] | < 0.5 µM | 
4 | Cc1csc(CN(C)C(=O)c2cc(C(=O)N[C@@H](Cc3ccccc3)[C@H](O)[C@H]3CCCN3)cc(-c3ncco3)c2)n1 [1-15, N1-((1R,2S)-1-hydroxy-3-phenyl-1-((R)-pyrrolidin-2-yl)propan-2-yl)-N3-methyl-N3-((4-methylthiazol-2-yl)methyl)-5-(oxazol-2-yl)isophthalamide] | < 0.5 µM | 
5 | Cc1csc([C@H]2CCCN2C(=O)c2cc(C(=O)N[C@@H](Cc3ccccc3)[C@H](O)[C@H]3CCCN3)cc(-n3cccc3)c2)n1 [1-16, N1-((1R,2S)-1-hydroxy-3-phenyl-1-((R)-pyrrolidin-2-yl)propan-2-yl)-3-((R)-2-(4-methylthiazol-2-yl)pyrrolidine-1-carbonyl)-5-(1H-pyrrol-1-yl)benzamide] | 0.5 to 1 µM | 
6 | Cc1coc([C@H]2CCCN2C(=O)c2cc(C(=O)N[C@@H](Cc3ccccc3)[C@H](O)[C@H]3CCCN3)cc(-c3ncco3)c2)n1 [1-17, N-((1R,2S)-1-hydroxy-3-phenyl-1-((R)-pyrrolidin-2-yl)propan-2-yl)-3-((R)-2-(4-methyloxazol-2-yl)pyrrolidine-1-carbonyl)-5-(oxazol-2-yl)benzamide] | < 0.5 µM | 
7 | Cc1csc([C@H]2CCCN2C(=O)c2cc(C(=O)N[C@@H](Cc3ccccc3)[C@H](O)[C@H]3CCCN3)cc(-c3ncco3)c2)n1 [1-19, N-((1R,2S)-1-hydroxy-3-phenyl-1-((R)-pyrrolidin-2-yl)propan-2-yl)-3-((R)-2-(4-methylthiazol-2-yl)pyrrolidine-1-carbonyl)-5-(oxazol-2-yl)benzamide] | < 0.5 µM | 
8 | Cc1csc([C@H]2CCCN2C(=O)c2cc(C(=O)N[C@@H](Cc3ccccc3)[C@H](O)[C@H]3CCCN3)cc(-c3cnccn3)c2)n1 [1-20, N-((1R,2S)-1-hydroxy-3-phenyl-1-((R)-pyrrolidin-2-yl)propan-2-yl)-3-((R)-2-(4-methylthiazol-2-yl)pyrrolidine-1-carbonyl)-5-(pyrazin-2-yl)benzamide] | < 0.5 µM | 
9 | Cc1coc([C@H]2CCCN2C(=O)c2cc(C(=O)N[C@@H](Cc3ccccc3)[C@H](O)[C@H]3CCCN3)cc(-c3cnccn3)c2)n1 [1-21, N-((1R,2S)-1-hydroxy-3-phenyl-1-((R)-pyrrolidin-2-yl)propan-2-yl)-3-((R)-2-(4-methyloxazol-2-yl)pyrrolidine-1-carbonyl)-5-(pyrazin-2-yl)benzamide] | < 0.5 µM | 
10 | Cc1csc([C@H]2CCCN2C(=O)c2cccc(C(=O)N[C@@H](Cc3ccccc3)[C@H](O)[C@H]3C[C@@H](OCc4ccccc4)CN3)c2)n1 [1-22, N-((1R,2S)-1-((2R,4R)-4-(benzyloxy)pyrrolidin-2-yl)-1-hydroxy-3-phenylpropan-2-yl)-3-((R)-2-(4-methylthiazol-2-yl)pyrrolidine-1-carbonyl)benzamide] | < 0.5 µM | 
11 | Cc1csc([C@H]2CCCN2C(=O)c2cc(C(=O)N[C@@H](Cc3ccccc3)[C@H](O)[C@H]3CCCN3)cc(N(C)S(C)(=O)=O)c2)n1 [1-23, N-((1R,2S)-1-hydroxy-3-phenyl-1-((R)-pyrrolidin-2-yl)propan-2-yl)-3-(N-methylmethylsulfonamido)-5-((R)-2-(4-methylthiazol-2-yl)pyrrolidine-1-carbonyl)benzamide] | < 0.5 µM | 
12 | Cc1coc([C@H]2CCCN2C(=O)c2cc(C(=O)N[C@@H](Cc3ccccc3)[C@H](O)[C@H]3CCCN3)cc(-c3ccccn3)c2)n1 [1-24, N-((1R,2S)-1-hydroxy-3-phenyl-1-((R)-pyrrolidin-2-yl)propan-2-yl)-3-((R)-2-(4-methyloxazol-2-yl)pyrrolidine-1-carbonyl)-5-(pyridin-2-yl)benzamide] | < 0.5 µM | 
13 | Cc1csc([C@H]2CCCN2C(=O)c2cc(C(=O)N[C@@H](Cc3ccccc3)[C@H](O)[C@H]3C[C@@H](OCc4ccccc4)CN3)cc(-n3cccc3)c2)n1 [1-25, N-((1R,2S)-1-((2R,4R)-4-(benzyloxy)pyrrolidin-2-yl)-1-hydroxy-3-phenylpropan-2-yl)-3-((R)-2-(4-methylthiazol-2-yl)pyrrolidine-1-carbonyl)-5-(1H-pyrrol-1-yl)benzamide] | < 0.5 µM | 0.0556 µM
14 | Cc1csc(CN(C)C(=O)c2cc(C(=O)N[C@@H](Cc3ccccc3)[C@H](O)[C@H]3CCCN3)cc(N(C)S(C)(=O)=O)c2)n1 [1-27, N1-((1R,2S)-1-hydroxy-3-phenyl-1-((R)-pyrrolidin-2-yl)propan-2-yl)-N3-methyl-5-(N-methylmethylsulfonamido)-N3-((4-methylthiazol-2-yl)methyl)isophthalamide] | < 0.5 µM | 
15 | Cc1csc([C@H]2CCCN2C(=O)c2cc(F)cc(C(=O)N[C@@H](Cc3ccccc3)[C@H](O)[C@H]3CCCN3)c2)n1 [1-32, 3-fluoro-N-((1R,2S)-1-hydroxy-3-phenyl-1-((R)-pyrrolidin-2-yl)propan-2-yl)-5-((R)-2-(4-methylthiazol-2-yl)pyrrolidine-1-carbonyl)benzamide] | > 1 µM | 
16 | Cc1csc([C@H]2CCCN2C(=O)c2cc(C(=O)N[C@@H](Cc3ccccc3)[C@H](O)[C@H]3CCCN3)cc(N3CCOCC3)c2)n1 [1-33, N-((1R,2S)-1-hydroxy-3-phenyl-1-((R)-pyrrolidin-2-yl)propan-2-yl)-3-((R)-2-(4-methylthiazol-2-yl)pyrrolidine-1-carbonyl)-5-morpholinobenzamide] | > 1 µM | 
17 | COc1cc(C(=O)N[C@@H](Cc2ccccc2)[C@H](O)[C@H]2CCCN2)cc(C(=O)N2CCC[C@@H]2c2nc(C)cs2)c1 [1-34, N-((1R,2S)-1-hydroxy-3-phenyl-1-((R)-pyrrolidin-2-yl)propan-2-yl)-3-methoxy-5-((R)-2-(4-methylthiazol-2-yl)pyrrolidine-1-carbonyl)benzamide] | > 1 µM | 
18 | Cc1csc([C@H]2CCCN2C(=O)c2cc(CF)cc(C(=O)N[C@@H](Cc3ccccc3)[C@H](O)[C@H]3C[C@@H](OCc4ccccc4)CN3)c2)n1 [1-36, N-((1R,2S)-1-((2R,4R)-4-(benzyloxy)pyrrolidin-2-yl)-1-hydroxy-3-phenylpropan-2-yl)-3-(fluoromethyl)-5-((R)-2-(4-methylthiazol-2-yl)pyrrolidine-1-carbonyl)benzamide] | < 0.5 µM | 
